Measured values published in PubChem BioAssay AID1963829 (Molecular Pharmacology Branch, DTP, NCI, 2024).
pIC50: −log10 of the molar value. “And” between values parts separate entries of the source, which are not always exact repeats. Identical values can stand only once.

Test system: 935938-334-R-J1-PDC complex spheroid viability
Test: Anticancer human tumor 935938-334-R-J1-PDC patient-derived small intestine adenocarcinoma cell line growth inhibition [POLQ]
Conditions: for viability, T/C: stronger effect = lower value
Protocol: Multicellular complex tumor spheroid response to Polymerase (POL) inhibitors (novobiocin, ART-558, RP6685) in combination with a variety of drugs and investigational agents in selected tumor cell lines
The POL inhibitors (novobiocin, ART-558, and RP6685) were evaluated both individually and in combination with standard of care and investigational anticancer small molecules within a complex spheroid model of solid tumors. . Complex spheroids include a stromal component modeled by human endothelial cells (HUVEC) and fibroblasts modeled by human mesenchymal stem cells (MSCs). The concentration ranges selected for each drug and investigational agent were based upon clinically achievable concentrations if the clinical Cmax of the agent was known.
Compounds. The drugs and investigational agents: novobiocin (NSC847541), ART-558 (NSC835418), RP-6685 (NSC848927), peposertib (NSC802822), ceralasertib (NSC780249), elimusertib (NSC800525), camonsertib (NSC841442), AZD-1390 (NSC803789), olaparib (NSC753686), talazoparib (NSC767125), rucaparib (NSC756644), sotorasib (NSC818433), MRTX-1133 (NSC836407), SN-38 (NSC673596), topotecan (NSC609699), epotoside (NSC141540), doxorubicin (NSC123127), gemcitabine (NSC613327), 5-fluorouracil (NSC19893), paclitaxel (NSC125973), vemurafenib (NSC761431), MSA-2 (NSC828583), SN-011 (NSC837082), adavosertib (NSC754352), prexasertib (NSC758257), carboplatin (NSC241240) and oxaliplatin (NSC266046), were obtained from the National Cancer Institute (NCI) Developmental Therapeutics Program Chemical Repository (21). The FDA-approved anticancer drug set is available from the Developmental Therapeutics Program at https://dtp.cancer.gov/organization/dscb/obtaining/. […] The stock solutions were prepared in dimethyl sulfoxide (DMSO, Sigma-Aldrich, St. Louis, MO, cat. D2650), except for the platinum compounds which were prepared in saline (Quality Biological, Gaithersburg, MD, cat. 114-055-101), at 800-fold the tested concentration and stored at -70 degrees C prior to their use. All drugs and investigational agents were tested over a range starting from a high concentration at or near the clinical Cmax and decreasing in half-log increments. If the clinical Cmax for an agent had not been determined, the highest concentration tested was 10 microM, except for SN-38, which was tested at a high concentration of 1 microM.
Cell Culture. All cells were maintained in an incubator at 37 degrees C and 5% CO2 with 95% humidity. The PDC lines were cultured according to standard operating procedures established by the NCI PDMR (https://pdmr.cancer.gov). Table 3 of the manuscript, lists the cell lines along with the number of the three cell types plated to form the mct-spheroids and media for tumor cell growth. After thawing, all PDC lines, except 997537-175-T-J1-PDC and 415267-285-R-J2-PDC, were cultured in Matrigel-coated flasks prepared with a working solution of 1X Ham's F-12 nutrient mix, without supplementation (Thermo Fisher Scientific, cat. 11765054), 100 U/mL penicillin-streptomycin (Thermo Fisher Scientific, cat. 15140122), and 2.5% Matrigel (Corning Inc., Corning, NY, cat. 354248) for the first three passages. The two PDC lines 997537-175-T-J1-PDC and 415267-285-R-J2-PDC were cultured on uncoated flasks. The 857933-349-R-J2-PDC line was cultured in 6C/Colon 1B media containing advanced DMEM/F-12 (Thermo Fisher Scientific, cat. 12634028), 10 mM HEPES (Thermo Fisher Scientific, cat. 15630080), 1X GlutaMAX supplement (Thermo Fisher Scientific, cat. 35050061), 0.1 mg/mL primocin (InvivoGen, San Diego, CA, cat. ant-pm-2), 10% defined fetal bovine serum, heat inactivated (HyClone Laboratories Inc., Logan, UT, cat. SH30070.03HI), 50% L-WRN conditioned media (ATCC, cat. CRL-3276), 1.25 mM N-Acetyl-L-cysteine (Sigma-Aldrich, cat. A9165), 10 mM nicotinamide (Sigma-Aldrich, cat. N0636), 1X B-27 supplement (Thermo Fisher Scientific, cat. 17504044), 1X N-2 supplement (Thermo Fisher Scientific, cat. […]

[1] = compound alone, run of 11/27/2023
[2] = compound alone, run of 12/05/2023
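Also: spheroids exposed to drugs for seven days before viability read.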
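For viability, T/C in this document: 100% = DMSO vehicle control wells.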

| Structure (SMILES) | viability, T/C (compound 0.0316 µM) | viability, T/C (compound 0.1 µM) | viability, T/C (compound 0.316 µM) | viability, T/C (compound 1 µM) | viability, T/C (compound 3.16 µM) | viability, T/C (compound 10 µM) | pIC50 (curve of compound) | pIC50 [1] | viability, T/C (compound 0.00316 µM) | viability, T/C (compound 0.01 µM) | pIC50 [2] | viability, T/C (compound 0.000316 µM) | viability, T/C (compound 0.001 µM) |
| --- | --- | --- | --- | --- | --- | --- | --- | --- | --- | --- | --- | --- | --- |
| CCc1cc2c(N3CCc4c(cc(Cn5ccnc5)cc4-c4cn(C)nc4C(F)(F)F)C3=O)ccnc2c(OC)n1 | 78.9% and 69.7% and 64.6% | 56.2% and 71.7% and 57.9% | 70.9% and 68.9% and 69.7% | 61.2% and 62% and 60.9% | 64.3% and 76.9% and 69.6% | 57.7% and 50.2% and 58.4% | < 5.00 | – | – | – | – | – | – |
| CNCc1ccc(-c2[nH]c3cc(F)cc4c3c2CCNC4=O)cc1 | 114% and 107% and 98.2% | 119% and 78.9% and 107% | 92.8% and 87.7% and 94.1% | 88% and 96% and 108% | 94% and 139% and 114% | 109% and 116% and 90.9% | < 5.00 | – | – | – | – | – | – |
| COC1C(OC(N)=O)C(O)C(Oc2ccc3c(O)c(NC(=O)c4ccc(O)c(CC=C(C)C)c4)c(=O)oc3c2C)OC1(C)C (stereo not drawn) | – | – | – | – | – | – | – | < 5.00 | – | – | – | – | – |
| COc1cc(C2c3cc4c(cc3C(OC3OC5COC(C)OC5C(O)C3O)C3COC(=O)C23)OCO4)cc(OC)c1O (stereo not drawn) | 108% and 93.2% and 99.1% | 103% and 85.7% and 106% | 61.8% and 90.5% and 72.3% | 49.7% and 44.2% and 35.8% | 28.1% and 26.1% and 27.6% | 31.2% and 30.3% and 30.4% | 6.15 and 6.06 and 6.21 | – | – | – | – | – | – |
| COc1cc2cc(C(=O)CCC(=O)O)sc2cc1OC | 106% and 94.9% and 129% | 67.4% and 98.4% and 94.5% | 126% and 89.9% and 95.3% | 100% and 99.5% and 86.7% | 84.1% and 107% and 110% | 67.2% and 78.6% and 93.8% | < 5.00 | – | – | – | – | – | – |
| COc1ccc([C@@H](O)c2cc(-c3ncnc4cc(N5CCOCC5)ccc34)c(F)cc2Cl)nn1 | 92.9% and 78.8% and 78% | 81.3% and 85.4% and 74.1% | 104% and 91.9% and 83.3% | 67.2% and 91.9% and 95.6% | 78% and 69.2% and 62.2% | 36.1% and 31.2% and 33.4% | 5.19 and 5.25 and 5.29 | – | – | – | – | – | – |
| COc1cccc(OCCCN)c1-c1cc(Nc2cnc(C#N)cn2)n[nH]1 | 53.3% and 60.4% and 57.6% | 22.6% and 36.9% and 41.6% | 11.3% and 14.1% and 8.34% | 10% and 10.2% and 9.09% | – | – | 7.47 and 7.27 and 7.29 | – | 93.3% and 117% and 102% | 77.8% and 102% and 85.5% | – | – | – |
| COc1cccc2c1C(=O)c1c(O)c3c(c(O)c1C2=O)CC(O)(C(=O)CO)CC3OC1CC(N)C(O)C(C)O1 (stereo not drawn) | 68.8% and 69.1% and 56.6% | 39.8% and 38.5% and 102% | 25.9% and 33.7% and 25.3% | 23.2% and 22.7% and 24.1% | 7.61% and 6.31% and 3.97% | 6.95% and 3.94% and 4.69% | 7.15 and 7.10 and 6.73 | – | – | – | – | – | – |
| Cc1cccc(N(C)C(=O)C2C(O)CCN2c2nc(C)cc(C(F)(F)F)c2C#N)c1 (stereo not drawn) | – | – | – | – | – | – | – | < 5.00 | – | – | < 5.00 | – | – |
| Cn1ncnc1[C@H]1c2n[nH]c(=O)c3cc(F)cc(c23)N[C@@H]1c1ccc(F)cc1 | 113% and 94.7% and 116% | 99.4% and 96.1% and 76.1% | – | – | – | – | < 7.00 | – | 82.5% and 83.7% and 85.8% | 93.8% and 99.9% and 105% | – | 87.9% and 80.8% and 110% | 83.2% and 90.4% and 112% |
| Nc1ccc(C#CCN(C(=O)Cc2ncc(C(F)(F)F)cc2C(F)(F)F)c2ccc(F)cc2)nn1 | – | – | – | – | – | – | – | – | – | – | < 5.00 | – | – |
| Nc1ccn(C2OC(CO)C(O)C2(F)F)c(=O)n1 (stereo not drawn) | 39.8% and 30.9% and 30.5% | 26.2% and 19.4% and 23.6% | 23.7% and 17.5% and 14.9% | 22.1% and 18.1% and 16% | 20.7% (2×) and 16.5% | 18.4% and 16% and 17.2% | > 7.50 | – | – | – | – | – | – |
| O=C(Nc1ccc(O)c(NS(=O)(=O)c2ccc(F)cc2)c1)c1ccc(-c2ccccc2)cc1 | 105% and 85.8% and 92.8% | 90.5% and 105% and 85.8% | 76.6% and 90.5% and 111% | 80.5% and 76.2% and 111% | 103% and 84.1% and 91.1% | 93.4% and 63.7% and 69.9% | < 5.00 | – | – | – | – | – | – |
| O=C(c1cc(Cc2n[nH]c(=O)c3ccccc23)ccc1F)N1CCN(C(=O)C2CC2)CC1 | 88.4% and 80.5% and 75% | 103% and 70.2% and 77.2% | 100% and 67.5% and 112% | 94.9% and 67.4% and 68.7% | 72% and 64.6% and 73.7% | 54.9% and 55.4% and 55.1% | < 5.00 | – | – | – | – | – | – |
| O=c1[nH]cc(F)c(=O)[nH]1 | 103% and 81.1% and 79.2% | 114% and 90.2% and 81.6% | 113% and 80.6% and 77.4% | 90.5% and 72.5% and 74.6% | 75.5% and 63.4% and 54.9% | 59% and 54.3% and 47.8% | < 5.00 and 5.15 | – | – | – | – | – | – |
